Experimental data published in patent publication US10278942B2 (PELOTON THERAPEUTICS, INC., priority 2015, dated 2019).
Like-named read-outs stand apart in the source and are kept apart here.

Columns and labels:
786-O-Hif-Luc cells = experiment: Luciferase Assay (HIF responsive elements reporter)
Procedure: A pool of infected cells were then selected against 2 μg/mL of puromycin (P8833, Sigma) for 10 days followed by limited dilution to select single clones. […] Each concentration was tested in triplicate. After about 24 hours, luciferase activity was determined using ONE-Glo Luciferase Assay Reagent (E6110, Promega) following the manufacturer's recommended procedure. EC50 were calculated using Dotmatics software.

[1] = target: T1, HIF-2α HIS TAG-PASB Domain (Homo sapiens, UniProt Q99814); experiment: HIF-2α Scintillation Proximity Assay (SPA); assay type: binding
T1 construct: 100 nM HIF-2α HIS TAG-PASB Domain
Outline: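 IC50 values rest on percent inhibition, where the sample signal is scaled between high and low controls. Wells contain about 100 μL: compound dispensed as 2 μL of DMSO solution, 88 μL protein-probe mix and 10 μL of beads.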

786-O cells = experiment: VEGF ELISA Assay; assay type: cell-based; conditions: Homo sapiens, 786-0
Procedure: Each concentration was plated in duplicate. About 20 hours later, medium was removed by suction and each well was supplied with 180 μL of growth medium. About 20 μl freshly-made 10× compound stocks were added to each well. […] The EC50 was calculated by GraphPad Prism using the dose-response-inhibition (four parameter) equation. The cell-seeded plate was then subjected to CellTiter-Glo luminescence cell viability assay (Promega) by adding 50 μL of Celltiter Glo reagent into each well and shaking the plate for 8 minutes at 550 rpm (Thermomixer R, Eppendorf) then the luminescence signal immediately read in a plate reader (3 second delay, 0.5 second/well integration time, Synergy 2 multi Detection Microplate reader).

[2] = read-out: Mean Luciferase EC50 (nM), 786-O-Hif-Luc cells
[3] = read-out: Scintillation Proximity Assay IC50
[4] = read-out: Mean Luciferase EC50 (nM)
[5] = Scintillation Proximity Assay IC50 (nM)

T1 sequence (Q99814 240-350 limits assumed): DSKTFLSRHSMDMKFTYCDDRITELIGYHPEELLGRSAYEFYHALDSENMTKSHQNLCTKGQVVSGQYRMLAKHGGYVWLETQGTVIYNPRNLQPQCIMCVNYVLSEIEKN

SMILES	EC50 (786-O-Hif-Luc cells; [2])	IC50 [1, 3]	EC50 (786-O cells)	EC50 (786-O-Hif-Luc cells; [4])	IC50 [1, 5]
O=S(=O)(CF)c1ccc(Oc2cc(F)cc(F)c2)c2c1[C@H](O)CC2 [Compound 60]	50 to 249 nM	< 50 nM	< 50 nM	–	–
CS(=O)(=O)c1ccc(Oc2cc(Cl)cc(C#N)c2)c2c1[C@H](O)C(F)(F)C2 [Compound 234]	–	–	50 to 249 nM	< 50 nM	–
N#Cc1cc(F)cc(Oc2ccc(S(=O)(=O)C(F)(F)F)c3c2CC(F)(F)[C@H]3O)c1 [Compound 185]	< 50 nM	–	< 50 nM	–	< 50 nM
CS(=O)(=O)c1ccc(O[C@H]2C[C@H](C#N)C2)c2c1[C@H](O)C(F)(F)[C@@H]2F [Compound 760]	50 to 249 nM	< 50 nM	50 to 249 nM	–	–
N#Cc1cc(F)cc(Oc2ccc(S(=O)(=O)C(F)F)cc2Br)c1 [Compound 132]	> 1000 nM	250 to 1000 nM	250 to 1000 nM	–	–
N#Cc1c(S(=O)(=O)C(F)(F)F)ccc(Oc2cc(F)cc(Cl)c2)c1Br [Compound 98]	> 1000 nM	< 50 nM	> 1000 nM	–	–
N#Cc1cc(Oc2ccc(S(=O)(=O)C(F)(F)F)c3c2CC(F)(F)[C@H]3O)c[n+]([O-])c1 [Compound 267]	50 to 249 nM	50 to 249 nM	250 to 1000 nM	–	–
O=S1(=O)c2ccc(Oc3cc(F)cc(Cl)c3)c(C(F)(F)F)c2C(O)C1(F)F (stereo not drawn) [Compound 360]	–	–	50 to 249 nM	50 to 249 nM	< 50 nM
N=S1(=O)c2ccc(Oc3cc(F)cc(F)c3)c(C(F)F)c2C(O)C1(F)F (stereo not drawn) [Compound 398]	50 to 249 nM	< 50 nM	50 to 249 nM	–	–
O=S1(=O)c2ccc(Oc3cc(F)cc(Cl)c3)c(Br)c2C(O)C1(F)F (stereo not drawn) [Compound 355]	–	–	50 to 249 nM	–	< 50 nM
O=S(=O)(c1ccc(Oc2cc(F)cc(Cl)c2)c(Br)c1CO)C(F)(F)F [Compound 102]	–	50 to 249 nM	250 to 1000 nM	–	–
CS(=O)(=O)c1ccc(Oc2cc(F)cc(F)c2)c2c1[C@H](O)C(F)(F)C2 [Compound 159]	< 50 nM	< 50 nM	< 50 nM	–	–
CS(=O)(=O)c1ccc(Oc2cncc(C#N)c2)c2c1[C@H](O)C(F)(F)[C@@H]2F [Compound 342]	50 to 249 nM	< 50 nM	50 to 249 nM	–	–
N#Cc1cc(F)cc(Oc2ccc(S(=O)(=O)CF)c3c2CC(F)(F)[C@H]3O)c1 [Compound 63]	< 50 nM	–	< 50 nM	–	< 50 nM
N#CC1(COc2ccc(S(=O)(=O)C(F)(F)F)c3c2CC(F)(F)[C@H]3O)CC1 [Compound 658]	< 50 nM	< 50 nM	< 50 nM	–	–
N#Cc1ccc(Oc2cc(F)cc(F)c2)c2c1[C@H](O)C(F)(F)C2 [Compound 67]	–	–	50 to 249 nM	–	–
N#Cc1cc(F)cc(Nc2ccc(S(=O)(=O)C(F)(F)F)c3c2CC(F)(F)[C@H]3O)c1 [Compound 489, (S)-3-((2,2-difluoro-1-hydroxy-7-((trifluoromethyl)sulfonyl)-2,3-dihydro-1H-inden-4-yl)amino)-5-fluorobenzonitrile]	< 50 nM	< 50 nM	< 50 nM	–	–
O=S(=O)(c1ccc(OCCCF)c2c1[C@H](O)C(F)(F)C2)C(F)(F)F [Compound 712]	< 50 nM	< 50 nM	< 50 nM	–	–
O=S(=O)(c1ccc(Oc2cc(F)cc(Cl)c2)c2c1C(O)CC2)C(F)F (stereo not drawn) [Compound 17]	–	–	50 to 249 nM	–	–
CS(=O)(=O)c1ccc(OC2CC(F)(F)C2)c2c1[C@H](O)C(F)(F)[C@@H]2F [Compound 574, (1S,3R)-4-(3,3-difluorocyclobutoxy)-2,2,3-trifluoro-7-(methylsulfonyl)-2,3-dihydro-1H-inden-1-ol]	50 to 249 nM	< 50 nM	50 to 249 nM	–	–
N#Cc1cc(F)cc(Oc2ccc(S(=O)(=O)C(F)F)c3c2CC[C@H]3O)c1 [Compound 155]	–	–	50 to 249 nM	50 to 249 nM	–
N#Cc1cccc(Oc2ccc(S(=O)(=O)C(F)(F)F)c(C#N)c2Br)c1 [Compound 99]	250 to 1000 nM	–	250 to 1000 nM	–	–
O=S(=O)(c1ccc(OC2CCCC2)c2c1C(O)C(F)(F)C2)C(F)(F)F (stereo not drawn) [Compound 605]	< 50 nM	< 50 nM	50 to 249 nM	–	–

SMILES	EC50 (786-O-Hif-Luc cells; [2])	IC50 [1, 3]	EC50 (786-O cells)	EC50 (786-O-Hif-Luc cells; [4])	IC50 [1, 5]
CS(=O)(=O)c1ccc(O[C@H]2C[C@H](F)C2)c2c1[C@H](O)C(F)(F)[C@@H]2F [Compound 736]	50 to 249 nM	< 50 nM	50 to 249 nM	–	–
O=S(=O)(c1ccc(Oc2cc(F)cc(F)c2)c2c1[C@H](O)CC2)C(F)F [Compound 2]	50 to 249 nM	< 50 nM	50 to 249 nM	–	–
CS(=O)(=O)c1ccc(OC2CC(F)(F)C2)c2c1[C@H](O)C(F)(F)C2 [Compound 734]	50 to 249 nM	50 to 249 nM	250 to 1000 nM	–	–
CS(=O)(=O)c1ccc(Oc2cncc(C#N)c2)c2c1[C@H](O)C(F)(F)C2 [Compound 325]	250 to 1000 nM	50 to 249 nM	50 to 249 nM	–	–
COC[C@@H](C)Oc1ccc(S(=O)(=O)C(F)(F)F)c2c1CC(F)(F)[C@H]2O [Compound 659]	50 to 249 nM	< 50 nM	50 to 249 nM	–	–
O=S(=O)(CF)c1ccc(OC2CC(F)(F)C2)c2c1[C@H](O)[C@H](F)[C@@H]2F [Compound 578]	50 to 249 nM	< 50 nM	50 to 249 nM	–	–
O=S(=O)(c1ccc(OC2CC(F)(F)C2)c2c1[C@H](O)C(F)(F)C2)C(F)(F)F [Compound 572]	< 50 nM	< 50 nM	< 50 nM	–	–
N#Cc1cncc(Oc2ccc(C(F)(F)F)c3c2CC(F)(F)[C@H]3O)c1 [Compound 303]	< 50 nM	< 50 nM	50 to 249 nM	–	–
N#Cc1cc(F)cc(Oc2ccc(C(F)(F)F)c3c2CC(F)(F)[C@H]3O)c1 [Compound 273]	< 50 nM	< 50 nM	< 50 nM	–	–
N#Cc1cc(S(=O)(=O)C(F)F)ccc1Oc1cc(F)cc(Cl)c1 [Compound 133]	–	250 to 1000 nM	> 1000 nM	–	–
N#Cc1cc(F)cc(Oc2ccc(S(=N)(=O)CF)c3c2CC(F)(F)[C@H]3O)c1 (stereo partly drawn) [Compound 274]	–	50 to 249 nM	> 1000 nM	–	–
CC1(O)c2c(ccc(Oc3cc(F)cc(C#N)c3)c2C#N)S(=O)(=O)C1(F)F (stereo not drawn) [Compound 451]	< 50 nM	–	< 50 nM	–	–
O=S(=O)(c1ccc(Oc2cc(F)cc(Cl)c2)c(Br)c1Cl)C(F)(F)F [Compound 179]	–	< 50 nM	> 1000 nM	–	–
O=S(=O)(c1ccc(Oc2cc(F)cc(Cl)c2)c(C(F)F)c1)C(F)(F)F [Compound 124]	–	–	250 to 1000 nM	250 to 1000 nM	–
O=S(=O)(c1ccc(Oc2cc(F)cc(Cl)c2)c(Cl)c1CO)C(F)F [Compound 41]	–	–	250 to 1000 nM	250 to 1000 nM	–
O=S(=O)(c1ccc(Oc2cc(F)cc(Cl)c2)c2c1[C@H](O)CC2)C(F)F [Compound 1]	–	–	250 to 1000 nM	–	–
O[C@H]1c2c(C(F)(F)F)ncc(OC3CC(F)C3)c2C[C@H]1F (stereo partly drawn) [Compound 478]	< 50 nM	–	< 50 nM	–	–
C[C@@]1(O)c2c(ccc(Oc3cc(F)cc(C#N)c3)c2C#N)S(=O)(=O)C1(F)F [Compound 458]	< 50 nM	–	< 50 nM	–	–
O=S1(=O)c2ccc(Oc3cncc(F)c3)c(Br)c2[C@@H](O)C1(F)F [Compound 423]	50 to 249 nM	250 to 1000 nM	–	–	–
N#C[C@H]1C[C@H](Oc2ccc(S(=O)(=O)C(F)(F)F)c3c2CC(F)(F)[C@H]3O)C1 [Compound 786]	< 50 nM	< 50 nM	–	–	–
CS(=O)(=O)c1ccc(Oc2cc(F)cc(Cl)c2)c2c1[C@H](O)C(F)(F)C2 [Compound 160]	< 50 nM	< 50 nM	–	–	–
CCCOc1ccc(I)c2c1CC(F)(F)C2O (stereo not drawn) [Compound 682]	250 to 1000 nM	50 to 249 nM	–	–	–
[2H]C1(O)c2c(ccc(Oc3cc(F)cc(Cl)c3)c2C(F)F)S(=O)(=O)C1(F)F (stereo not drawn) [Compound 371]	–	–	–	< 50 nM	< 50 nM
